Assay results taken from patent US20070154540A1 (KMSI CO., LTD., priority 2003, published 2007).
pIC50: −log10 of the molar value. Like-named read-outs stand apart in the source and are kept apart here.

Assays:
[1] = tested on: osteoarthritis-induced New Zealand white rabbits; test: Total joint synovial fluid volume (Arsenazo III) in osteoarthritis-induced rabbits; assay type: in vivo
Source text: (§1) To prepare an osteoarthritis animal model, New Zealand white rabbits underwent anterior cruciate ligament transection (ACLT) in joints of their two hind legs. After three days, the rabbits were forced to sustain movement for four weeks in a space of 5×5 m^3 to induce substantial osteoarthritis. […] The following Examples 3 to 10 were all performed using joints of the osteoarthritis-induced New Zealand white rabbits prepared as in this Example 2.
Typically, synovial fluid volume increases with inflammation as osteoarthritis progresses. […] The supernatants were used in this test.
Since synovial fluid volume has been reported to change according to the progress of osteoarthritis, total synovial fluid volume was measured to investigate changes in synovial fluids according to osteoarthritis induction and drug treatment. Synovial fluid volume was determined by measuring Ca^2+ concentrations in synovial fluids using an Arsenazo III complexion method (Michaylova V. et al., Anal. Chim. Acta, 53:194 (1971)). Total synovial fluid volume was calculated using a Donnan equilibrium equation. 0.01 ml of a synovial fluid was mixed with 1 ml of an Arsenazo III reagent (588-3, Sigma) and allowed to stand at room temperature for 5 min. Absorbance was measured at 600 nm using a spectrophotometer (DU650, Beckman).

[2] = tested on: osteoarthritis-induced New Zealand white rabbits; test: Visual observation of joint cartilage in ACLT osteoarthritis-induced rabbits; assay type: in vivo
Source text: To prepare an osteoarthritis animal model, New Zealand white rabbits underwent anterior cruciate ligament transection (ACLT) in joints of their two hind legs. […] The following Examples 3 to 10 were all performed using joints of the osteoarthritis-induced New Zealand white rabbits prepared as in this Example 2. […] In contrast, in the PBS control group, the surface of joint cartilage was very rough due to the damage of the joint cartilage.

[3] = tested on: osteoarthritis-induced New Zealand white rabbits; test: Total protein levels in joint synovial fluids (Bradford); assay type: in vivo
Source text: as §1
As cartilage is destroyed with the progress of osteoarthritis, proteins contained therein are released into synovial fluids. With this respect, total protein levels were measured in synovial fluids. Using the joint synovial fluids prepared in Example 3, total protein levels in synovial fluids were measured using a Bradford method. 50 μl of a synovial fluid was mixed with 200 μl of a protein analysis reagent (500-0006, Bio-Rad) and allowed to stand at room temperature for 5 min, and absorbance was then measured at 595 nm.

[4] = tested on: osteoarthritis-induced New Zealand white rabbits; test: H&E staining and safranin-O staining of joint cartilage; assay type: in vivo; conditions: apigenin treatment group compared to control group
Source text: Distal femurs were collected from experimental animals and fixed with 4% formalin (F8775, Sigma) for over 24 hrs. An area of the distal femur to be analyzed was sectioned into a 5-mm thickness, decalcified with 5% nitric acid (25, 811-3, Sigma) for over 24 hrs and embedded into paraffin to provide a paraffin block. The paraffin block was sectioned, and the resulting 4-μm sections were subjected to H&E staining and staining with a cartilage-specific dye, safranin-O (S2255, Sigma), and observed under an optical microscope to evaluate the condition of cartilage.

[5] = tested on: chondrocytes isolated from the cartilage of New Zealand white rabbits; test: cells; assay type: cell-based; conditions: Oryctolagus cuniculus, Chondrocyte, read-out: IC50 values for apigenin on chondrocytes
Procedure: During culturing, on Days 1, 2, 4 and 6, IC50 values were measured by a MTT assay based on cell viability.

[6] = tested on: osteoarthritis-induced New Zealand white rabbits; test: Mankin's scoring of joints; assay type: in vivo; conditions: after osteoarthritis induction, scale 0 to 14; control group 12.5
Procedure: In histological tests, degenerative changes, such as structural changes of cartilage, cell number changes in cartilage and surface staining distribution by cartilage staining with a dye, were evaluated according to a standard scoring system for the progress of osteoarthritis, Mankin's scoring (Mankin, H. J. et al., Orthopedic Clinics of North America, 2:19-30 (1971)). In the present invention, blind tests were performed by two inspectors according to the Mankin's criteria.
To prepare an osteoarthritis animal model, New Zealand white rabbits underwent anterior cruciate ligament transection (ACLT) in joints of their two hind legs. After three days, the rabbits were forced to sustain movement for four weeks in a space of 5×5 m^3 to induce substantial osteoarthritis. […]
30-mm synovial tissues were sectioned from the medial parapatella synovium of knee joints of experimental animals, fixed with 10% […] (F0507, Sigma) for over 24 hrs, and embedded in paraffin to make 4-mm paraffin blocks. […] Mankin's scoring was performed by blind tests carried out by two inspectors, and Mankin scores were determined according to the degree of degenerative progress and ranged from 0 (normal in all items) to a maximum score of 14, thus calculating a degenerative change index.

[7] = tested on: osteoarthritis-induced New Zealand white rabbits; test: Nitric oxide levels in synovial fluids (Griess reaction); assay type: in vivo
Source text: as §1
A synovial fluid and a Griess reagent were mixed at a ratio of 1:1 (100 μl: 100 μl) and allowed to stand at room temperature for 10 min, and absorbance was measured at 540 nm using a spectrophotometer (Power Wave X340, Bio-Tek). The Griess reagent was prepared in a final volume of 10 ml using 0.1 g of sulfanilamide (S9251, Sigma), 0.5 ml of phosphoric acid (P6560, Sigma) and 0.01 g of N-naphthyl-diamine-H-chloride (102397, ICN). A quantitative curve for nitrite was obtained using sodium nitrite (S2252, Sigma).

[8] = non-treated left leg (−) of apigenin treatment group, four weeks after drug injection
[9] = non-treated left leg (−) of apigenin treatment group, two weeks after drug injection
[10] = apigenin-treated right leg (+), four weeks after drug injection
[11] = apigenin-treated right leg (+), four weeks after drug injection, listed as Apigenin
[12] = apigenin-treated right leg (+), two weeks after drug injection

## O=c1cc(-c2ccc(O)cc2)oc2cc(O)cc(O)c12 [apigenin, 4′,5,7-trihydroxyflavone]
[1]; apigenin-treated right leg (+), 50 μg once per week, four weeks after drug injection
  Total synovial fluid volume: about 1.16 ml
[1]; apigenin-treated right leg (+), 50 μg once per week, four weeks after drug injection, listed as Apigenin
  Total synovial fluid volume: 1.16 ± 0.03 mL
[1]; apigenin-treated right leg (+), 50 μg once per week, two weeks after drug injection
  Total synovial fluid volume: 1.13 ± 0.08 mL
[1]; [8]
  Total synovial fluid volume: about 1.58 ml
[1]; non-treated left leg (−) of apigenin treatment group, four weeks after drug injection, listed as Apigenin
  Total synovial fluid volume: 1.58 ± 0.24 mL
[1]; [9]
  Total synovial fluid volume: 1.17 ± 0.08 mL
[2]; apigenin-treated right joint, 50 μg once per week for four weeks
  surface of joint cartilage (visual): visually smooth
[2]; non-treated left joint of apigenin group
  cartilage in the left joint of the test group (visual): improved to some extent
[3]; [10]
  Total protein levels in joint synovial fluids: about 24.91 mg/ml
[3]; [11]
  Total protein levels in joint synovial fluids: 24.91 ± 0.35 mg/mL
[3]; [12]
  Total protein levels in joint synovial fluids: 16.64 ± 0.3 mg/mL
[3]; [8]
  Total protein levels in joint synovial fluids: 36.37 ± 0. mg/ml
[3]; [9]
  Total protein levels in joint synovial fluids: 20.36 ± 0.69 mg/mL
[4]
  condition of cartilage by H&E and safranin-O staining: damaged areas of cartilage were found to be restored
[5]; 24 h
  pIC50: ~3.70
[5]; 48 h
  pIC50: ~4.00
[5]; 96 h
  pIC50: ~4.40
[5]; 144 h
  pIC50: ~4.52
[6]
  Mankin score (mean): 6.6
[7]; [10]
  NO levels in synovial fluids: about 6.01 μM
[7]; [11]
  NO levels in synovial fluids: 6.01 ± 0.88 µM
[7]; [12]
  NO levels in synovial fluids: 7.53 ± 4.66 µM
[7]; [8]
  NO levels in synovial fluids: 5.5 ± 4.59 µM
[7]; [9]
  NO levels in synovial fluids: 0.65 ± 0.06 µM
